Reference: PubChem BioAssay (NCI)
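Tested at 5 concentrations; 48 h exposure; 96-well plates; endpoints linearly interpolated, else capped at highest concentration. TGI marks complete inhibition of growth.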

Key:
Assay in all cases: growth of human tumour cells (NCI), 48 h
SK-OV-3 ovarian = test system: SK-OV-3 ovarian
SK-MEL-28 melanoma = test system: SK-MEL-28 melanoma
TK-10 renal = test system: TK-10 renal
HS 578T breast = test system: HS 578T breast
SK-MEL-5 melanoma = test system: SK-MEL-5 melanoma
A549 NSCLC = test system: A549 NSCLC
MALME-3M melanoma = test system: MALME-3M melanoma
OVCAR-3 ovarian = test system: OVCAR-3 ovarian
HCT-116 colon = test system: HCT-116 colon
HL-60(TB) leukemia = test system: HL-60(TB) leukemia
NCI/ADR-RES ovarian = test system: NCI/ADR-RES ovarian
SNB-75 CNS = test system: SNB-75 CNS
ACHN renal = test system: ACHN renal
OVCAR-5 ovarian = test system: OVCAR-5 ovarian
BT-549 breast = test system: BT-549 breast
HCT-15 colon = test system: HCT-15 colon
CCRF-CEM leukemia = test system: CCRF-CEM leukemia
K-562 leukemia = test system: K-562 leukemia
NCI-H23 lung = test system: NCI-H23 lung
RPMI-8226 leukemia = test system: RPMI-8226 leukemia

SMILES | TGI (SK-OV-3 ovarian) [µM] | TGI (SK-MEL-28 melanoma) [µM] | TGI (TK-10 renal) [µM] | TGI (HS 578T breast) [µM] | TGI (SK-MEL-5 melanoma) [µM] | TGI (A549 NSCLC) [µM] | TGI (MALME-3M melanoma) [µM] | TGI (OVCAR-3 ovarian) [µM] | TGI (HCT-116 colon) [µM] | TGI (HL-60(TB) leukemia) [µM] | TGI (NCI/ADR-RES ovarian) [µM] | TGI (SNB-75 CNS) [µM] | TGI (ACHN renal) [µM] | TGI (OVCAR-5 ovarian) [µM] | TGI (BT-549 breast) [µM] | TGI (HCT-15 colon) [µM] | TGI (CCRF-CEM leukemia) [µM] | TGI (K-562 leukemia) [µM] | TGI (NCI-H23 lung) [µM] | TGI (RPMI-8226 leukemia) [µM]
O=c1n(-c2ccccc2)c(=O)n2c(-c3ccccc3)c(-c3ccccc3)n12 | > 100 | > 100 | > 100 | > 100 | > 100 | > 100 | > 100 | > 100 | > 100 | > 100 | > 100 | > 100 | > 100 | > 100 | > 100 | > 100 | > 100 | > 100 | > 100 | 
C=C1C2CCC3(CCC4C5(C)CCCC4(C=[N+](CCO)C5)C3C2)C1O (stereo not given) | > 100 | > 100 | > 100 | > 100 | > 100 | > 100 | > 100 | > 100 | > 100 | > 100 | > 100 | > 100 | > 100 | > 100 | > 100 | > 100 | > 100 |  | > 100 | > 100
c1ccc(COC2C3COC(O3)C(OCc3ccccc3)C2OCc2ccccc2)cc1 (stereo not given) | > 100 |  | > 100 | > 100 | > 100 |  |  | > 100 | > 100 | 30.9 | > 100 | > 100 | > 100 | > 100 | > 100 | > 100 | 40.6 | > 100 | > 100 | > 100
c1n[nH]cc1C12C3C4C5C3C1C5C42 (stereo not given) | > 100 | > 100 | > 100 | > 100 | > 100 | > 100 | > 100 | > 100 | > 100 | > 100 | > 100 | > 100 | > 100 | > 100 | > 100 | > 100 | > 100 | > 100 | > 100 | > 100
O=C(NCCCCCCCN1CCCCCCC1)C(C1CCCCC1)C1CCCCC1 | 23.6 | 16.3 | 25.6 | 51.5 | 5.51 | 25.7 | 8.53 | 18.6 | 21.5 | 22.2 | 25.1 | 23.1 | 24.4 | 23.2 | 28.7 | 15.2 | 46.9 | 11.4 | 28.5 | 6.71
c1cncc(CSc2ncnc3nc[nH]c23)c1 | > 100 | > 100 | > 100 | > 100 | > 100 | > 100 | > 100 | > 100 | > 100 | > 100 | > 100 | > 100 | > 100 | > 100 | > 100 | > 100 | > 100 | > 100 | > 100 | 
O=C(Nc1ccc2[nH]c(C(=O)N3CC(CCl)c4ccc([N+](=O)[O-])cc43)cc2c1)c1cc2ccccc2o1 (stereo not given) | > 1100 | > 1100 |  | > 1100 | > 1100 | > 1100 | > 1100 | > 1100 | > 1100 | > 1100 | > 1100 |  |  | > 1100 | > 1100 | > 1100 | > 1100 |  | > 1100 | > 1100
CSc1c(C#N)c(S)n(-c2ccc(Cl)cc2)c(=O)c1C#N | > 100 | > 100 | > 100 | > 100 | > 100 | > 100 | > 100 | > 100 | > 100 | > 100 | > 100 | > 100 |  | > 100 | > 100 | > 100 | > 100 | > 100 | > 100 | > 100
NC(=O)c1sc2nc3ccccc3n2c1N | 89.4 | > 100 | > 100 | > 100 | > 100 | > 100 | > 100 | > 100 | > 100 | > 100 | > 100 | 79.1 | > 100 | > 100 | 76.8 | > 100 | > 100 |  | 41.4 | > 100
CNC(=O)N1N[C@H](c2ccccc2)[C@@H]1c1ccccc1 | 91.2 | 40.7 | > 100 | > 100 | 32.8 | > 100 | 72.6 | 36.7 | 36.3 | > 100 | 36.6 | 92.2 | > 100 | > 100 | 40.9 | 64 | > 100 | 54.5 | 47.9 | 
COc1ccccc1C1c2cc3c(cc2OC(N2CCCC2)C1C)OCO3 (stereo not given) |  | 48 | 47.9 | 30 | 29.4 | 46 | 43.2 | 32.4 | 29.1 | 49 | 53.7 | 27.3 | > 57.5 | 41.1 | 48 | 44.6 | 47.8 | > 53.3 | > 31.6 | 38.8
CCOC(=O)/C=C\C(C#N)(C#N)N=Cc1ccsc1 | 35.6 | 6.89 | 4.63 | 48.4 | 35.4 | 38.2 | 5.35 | 6.42 | 4.72 | 5.14 | 15.3 | 27.8 | 9.26 | 33.1 | 12.1 | 10.1 | 1.02 | 14.3 | 29.9 | 4.25
CC1CC(N2CCOCC2)=Nc2ccccc2N1Cc1ccccc1 (stereo not given) | > 100 | > 100 | > 100 | > 100 | > 100 | > 100 | 63.1 | > 100 | > 100 | > 100 | > 100 |  | > 100 | > 100 | > 100 | > 100 | > 100 | > 100 | > 100 | > 100
CN1CCC/C1=C1/C(=O)N(c2ccccc2)N=C1c1ccc[nH]1 |  | > 100 | > 100 | > 100 | > 100 | > 100 | > 100 | > 100 | > 100 | > 100 | > 100 | > 100 | > 100 | > 100 | > 100 | > 100 | > 100 | > 100 | > 100 | > 100
Cc1ccc(S(=O)(=O)N2CC(CCN)c3ccccc32)cc1 (stereo not given) | > 44.7 | 34.7 | > 51.1 | 54.5 | 17.7 | 32.5 | 17.6 | 26.2 | 25.6 | > 100 | 17 | 26.5 | > 53.2 | 24 | 21.9 | > 100 | > 100 | > 60.8 | > 52.6 | > 63.6
O=c1[nH]c2nc[nH]c2c(=O)n1C1CCCCC1 | > 100 | > 100 | > 100 | > 100 | > 100 | > 100 | > 100 | > 100 | > 100 | > 100 | > 100 | > 100 | > 100 | > 100 | > 100 | > 100 | > 100 | > 100 | > 100 | > 100
CCCCN(C)C(=O)C1=C(C)NC(C)=C(C(=O)N(C)CCCC)C1 | > 100 | > 100 | > 100 | > 100 | > 100 | > 100 |  | > 100 | > 100 | > 100 | > 100 | > 100 | > 100 | > 100 | > 100 | > 100 | > 100 | > 100 | > 100 | > 100
O=c1cc(CNC2CC3CCC2C3)[nH]c(=O)[nH]1 (stereo not given) | > 100 | > 100 | > 100 | > 100 | > 100 | > 100 | > 100 | > 100 | > 100 | > 100 | > 100 | > 100 | > 100 | > 100 | > 100 | > 100 | > 100 | > 100 | > 100 | > 100
O=C(O)Cc1cccc2c(=O)c3cccc([N+](=O)[O-])c3[nH]c12 | > 100 |  | > 100 | > 100 | > 100 | > 100 | 97.6 | > 100 | > 100 | > 100 | > 100 | > 100 | > 100 | > 100 | > 100 | > 100 | > 100 | > 100 | > 100 | > 100
Cc1ccc(S(=O)(=O)N2CCN(S(=O)(=O)c3ccc(C)cc3)CCN(S(=O)(=O)c3ccc(C)cc3)Cc3cc(Br)c(Br)cc3CN(S(=O)(=O)c3ccc(C)cc3)CC2)cc1 | > 100 | > 100 | > 100 | > 100 | > 100 | > 100 | > 100 | > 100 | > 100 | > 100 | > 100 | > 100 | > 100 | > 100 | > 100 | > 100 | > 100 | > 100 | > 100 | > 100
C=CCNC(=O)CN(CC(=O)O)C1CCCCC1N(CC(=O)O)CC(=O)O (stereo not given) | > 100 | > 100 | > 100 | > 100 | > 100 | > 100 | > 100 | > 100 | > 100 | > 100 | > 100 | > 100 | > 100 | > 100 | > 100 | > 100 | > 100 | > 100 | > 100 | > 100
Cc1nc(N(C(C)C)C(C)C)c(C(C)C)o1 | > 100 | > 100 | > 100 | > 100 | > 100 | > 100 | > 100 | > 100 | > 100 | > 100 | > 100 | > 100 | > 100 | > 100 | > 100 | > 100 | > 100 | > 100 | > 100 | 
CC(=O)O[C@@H]1[C@H]2[C@@H](OC(=O)c3ccccc3)[C@@H](C)C[C@]2(O)[C@H](OC(C)=O)[C@@]2(C)[C@@H]3C[C@@](C)(OC(C)=O)C[C@@H](OC(C)=O)[C@@]3(OC(C)=O)C[C@@]12C | > 10 |  | > 10 | > 10 | > 10 |  |  | > 10 | > 10 | > 10 | > 10 | > 10 | > 10 | > 10 | > 10 | > 10 | > 10 | > 10 | > 10 | 
O=S(=O)(O)c1ccc2cc(N=Nc3c(O)ccc4ccccc34)ccc2c1 | > 100 |  | > 100 | > 100 | > 100 | > 100 | > 100 | > 100 | > 100 | > 100 | > 100 | > 100 | > 100 | > 100 | > 100 | > 100 | > 100 | > 100 | > 100 | 
